Measurements taken from patent US20250099405A1, “COMPOSITIONS, METHODS, AND DEVELOPMENT OF ARID4B INHIBITORS” (University of Kentucky Research Foundation, priority 2022, published 2025).

How the values were obtained:
[1] = tested on: ERα signaling; test: qRT-PCR of ERα target genes after E2 treatment; type: cell-based; conditions: pre-treatment 5 and 10 μM
Procedure: The mRNA levels of GREB1, PGR, ARID4B, and MYD88 from MCF7 (A) and MCF7 Y537S cells (B) pre-treated with RWR-18 (0, 5 and 10 μM, 1 h) followed by +E2 treatment (10 nM, 4 h) were analyzed by qRT-PCR. Data are means±SEM from three biological replicate. ***, P<0.001. ns, not significant.
Consistent with knockout of ARID4B inhibited E2-induced and constitutive expression of ERα target genes, pre-treatment with RWR-18 (5 and 10 μM) abolished the induction of PGR and GREB1 genes by E2 in MCF7 and ZR75-1 cells (FIG. 18).

[2] = Plasma stability, incubation with mouse blood plasma, LC-MS; type: in vitro ADME; conditions: over the 24 h period, equivalent of 50 mg/kg
Procedure: (§1) Representative HE images of liver and spleen from mice treated with vehicle or ARD150. Images from vehicle and the highest doses of ARD150 (125 mg/kg) were shown (B). […] Three biological replicates for each time point.
The potential toxicity of RWR-18 was tested using 9-week-old Balb/c female mice. The mice were injected (i.p.) with vehicle or 10 mg/kg, 25 mg/kg, and 50 mg/kg of RWR-18 (daily for 7 days, 3 mice/group). The body weight was measured daily for 21 days. The liver, spleen, heart, lung, and kidney were collected for macroscopic and histological examination. […] Preliminary plasma kinetic studies were performed. Following the incubation of the equivalent of 50 mg/kg of RWR-18 with blood plasma from mice at 10 min, 30 min, 1 h, 4 h, 16 h, and 24 h, we measured the plasma levels of RWR-18 by LC-MS.

[3] = target: T1, HA-ARID4BAC (Homo sapiens, UniProt Q4LE39, DEL571-624); test: CETSA in HEK-293T cells expressing the chromodomain deletion mutant; type: cell-based; conditions: 10 μM, 2 h
T1 construct: transfected with vector, full-length ARID4B or ARID4B deletion mutants; expressed in transfected cells; host or cells: HEK-293T
T1 sequence (Q4LE39 with tags, fused parts or gaps DEL571-624): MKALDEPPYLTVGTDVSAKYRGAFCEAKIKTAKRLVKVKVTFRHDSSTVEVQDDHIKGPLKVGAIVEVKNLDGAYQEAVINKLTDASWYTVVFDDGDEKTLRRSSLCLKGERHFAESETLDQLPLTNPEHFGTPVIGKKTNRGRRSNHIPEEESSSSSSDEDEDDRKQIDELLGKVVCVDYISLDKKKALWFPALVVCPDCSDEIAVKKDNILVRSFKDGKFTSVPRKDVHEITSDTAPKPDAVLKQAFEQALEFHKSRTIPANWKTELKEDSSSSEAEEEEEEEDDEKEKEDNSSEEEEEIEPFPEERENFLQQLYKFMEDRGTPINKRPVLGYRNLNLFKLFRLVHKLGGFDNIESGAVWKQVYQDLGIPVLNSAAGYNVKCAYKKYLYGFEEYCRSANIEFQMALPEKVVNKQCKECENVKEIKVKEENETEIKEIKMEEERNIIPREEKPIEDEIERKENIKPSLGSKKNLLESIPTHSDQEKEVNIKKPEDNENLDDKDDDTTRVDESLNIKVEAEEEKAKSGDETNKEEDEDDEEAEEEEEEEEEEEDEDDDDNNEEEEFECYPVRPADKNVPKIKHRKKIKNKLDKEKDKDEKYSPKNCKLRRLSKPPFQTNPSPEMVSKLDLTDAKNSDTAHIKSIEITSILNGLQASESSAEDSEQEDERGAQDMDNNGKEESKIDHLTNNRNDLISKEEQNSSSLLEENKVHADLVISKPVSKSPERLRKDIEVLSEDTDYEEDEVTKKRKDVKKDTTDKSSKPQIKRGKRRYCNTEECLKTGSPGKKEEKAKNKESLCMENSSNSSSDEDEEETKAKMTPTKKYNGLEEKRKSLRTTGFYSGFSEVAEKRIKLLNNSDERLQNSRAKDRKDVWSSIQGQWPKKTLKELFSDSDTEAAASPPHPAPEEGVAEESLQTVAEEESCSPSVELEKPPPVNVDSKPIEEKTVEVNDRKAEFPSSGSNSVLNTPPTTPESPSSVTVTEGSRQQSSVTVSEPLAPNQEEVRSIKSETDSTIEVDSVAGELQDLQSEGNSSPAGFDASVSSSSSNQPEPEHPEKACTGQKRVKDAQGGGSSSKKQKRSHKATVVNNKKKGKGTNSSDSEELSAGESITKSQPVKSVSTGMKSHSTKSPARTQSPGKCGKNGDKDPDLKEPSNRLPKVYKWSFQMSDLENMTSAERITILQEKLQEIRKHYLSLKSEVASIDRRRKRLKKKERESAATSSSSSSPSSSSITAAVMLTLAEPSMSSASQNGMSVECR
Procedure: (B-C) show cells expressing HA-ARID4B (C) or HA-ARID4BIC (D) treated or not with ARD150 (10 μM) for 2 h were used for CESTA. […] (D-E) show cells expressing HA-ARID4B (D) or Flag-ARID4A (E) treated or not with RWR-18 (10 μM) for 2 h were used for CESTA. […] Data are means±SEM from three experiments. *P<0.05, **P<0.01, ns, not significant.
Using CETSA (cellular thermal shift assay) to examine whether ARD150 or RWR-18 binds to ARID4B, MCF7 cells treated or not with ARD150 or RWR-18 for 2 h were collected, followed by heating at 46, 49, 52, 55, and 58° C. to denature and precipitate ARID4B protein, cell lysis, removal of cell debris and aggregates by centrifugation, and finally detection of remaining thermostable ARID4B protein by western blot. The ARID4B aggregation temperatures without ARD150 were determined to be 49-52° C., but shifted to 52-55° C. after treatment with ARD150 and even more so with RWR-18 (FIG. 15A-D). To determine whether ARD150 and RWR-18 targets the chromodomain of ARID4B, CESTA was performed using chromodomain deletion mutant (ARID4BAC). HEK-293T cells expressing HA-ARID4B or HA-ARID4BAC were treated or not with ARD150 (10 μM) for 2 h and processed for CESTA.

[4] = Tolerability of ARD150 in mice; type: in vivo; conditions: 125 mg/kg
Procedure: as §1
The rational development of a small molecule inhibitor (SMI) of a given protein-protein pathway involves a multidisciplinary approach: computational studies, chemical synthesis, characterization of compounds, and biological characterization. ARID4B lacks a defined crystal structure which requires a heavier emphasis on in silico studies to develop SMIs for this pathway. […] Initial biological characterization through cell-based assays and in vitro/in vivo studies have shown that ARD150 targets ARID4B and is tolerable in mice at extremely high concentrations (125 mg/kg). […] Thus, even though ARD150 is a first-in-class inhibitor, further optimization is necessary to improve its characteristics as a theoretical treatment option for endocrine-resistant breast cancer.

reduction in peak area in mouse blood plasma [2]	SMILES	levels of ARID4B or MYD88 mRNA [1]	induction of PGR and GREB1 genes by E2 ([1]; MCF7 and ZR75-1 cells)	shift of aggregation temperatures of HA-ARID4BAC (chromodomain deletion mutant) [3]	tolerability in mice [4]
~20%	O=C(COc1ccc(OCc2ccccc2)cc1)NCCCN1CCOCC1 [RWR-18]	not affected	abolished		
	COc1ccc(C(=O)NCCCN2CCOCC2)cc1OC [ARD150]			no shift was observed	tolerable
